The text below walks through data of patent US11299501B2 (BRISTOL-MYERS SQUIBB COMPANY, priority 2017, dated 2022).

What all share (type): cell-based
For assay [1], the target named is T1, human TLR9 (Homo sapiens, UniProt Q9NR96).
T1 construct: host or cells: HEK-Blue cells
T1 sequence (Q9NR96 26-1032): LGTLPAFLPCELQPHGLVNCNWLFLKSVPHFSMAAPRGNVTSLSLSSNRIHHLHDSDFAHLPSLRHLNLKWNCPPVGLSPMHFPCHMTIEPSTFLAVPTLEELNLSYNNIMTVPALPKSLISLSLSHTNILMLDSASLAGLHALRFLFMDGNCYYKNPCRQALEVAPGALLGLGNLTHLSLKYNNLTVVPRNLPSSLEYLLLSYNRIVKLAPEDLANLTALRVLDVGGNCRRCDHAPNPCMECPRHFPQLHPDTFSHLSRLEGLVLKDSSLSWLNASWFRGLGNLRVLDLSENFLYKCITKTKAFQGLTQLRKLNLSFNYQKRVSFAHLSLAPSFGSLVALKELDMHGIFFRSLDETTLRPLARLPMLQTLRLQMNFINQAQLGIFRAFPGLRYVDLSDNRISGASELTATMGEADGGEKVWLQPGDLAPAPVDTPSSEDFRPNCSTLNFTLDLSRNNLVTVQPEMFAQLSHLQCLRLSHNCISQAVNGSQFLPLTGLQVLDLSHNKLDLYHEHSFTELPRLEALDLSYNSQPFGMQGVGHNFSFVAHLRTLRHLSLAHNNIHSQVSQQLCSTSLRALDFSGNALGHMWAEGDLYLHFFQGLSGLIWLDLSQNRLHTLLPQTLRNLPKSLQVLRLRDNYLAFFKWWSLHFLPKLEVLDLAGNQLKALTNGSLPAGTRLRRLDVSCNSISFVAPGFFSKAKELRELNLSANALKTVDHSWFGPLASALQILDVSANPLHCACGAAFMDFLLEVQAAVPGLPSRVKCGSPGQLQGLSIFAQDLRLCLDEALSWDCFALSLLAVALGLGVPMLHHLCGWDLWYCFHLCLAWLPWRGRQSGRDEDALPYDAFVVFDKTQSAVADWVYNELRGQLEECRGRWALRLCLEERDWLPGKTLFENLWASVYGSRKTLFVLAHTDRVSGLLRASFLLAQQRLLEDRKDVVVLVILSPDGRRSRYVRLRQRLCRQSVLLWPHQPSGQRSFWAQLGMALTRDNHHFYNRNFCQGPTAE
As to the kind of experiment: TLR9 inhibition reporter assay (HEK-Blue SEAP). To be noted: cells overexpressing human TLR9, SEAP reporter, stimulated with ODN2006 5 nM, 22 hour incubation. A digest of the protocol: (§1)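 HEK-Blue cells expressing human TLR7, TLR8 or TLR9 with NF-κB/AP-1-driven SEAP reporter pre-treated 30 min at room temperature with compound (0.05 nM–50 μM), then stimulated with gardiquimod 7.5 μM (TLR7), R848 15.9 μM (TLR8) or ODN2006 5 nM (TLR9). SEAP read after 22 h at 37 °C; % inhibition relative to agonist+DMSO and reference-inhibitor wells.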

For assay [2], the target named is T2, human TLR7 (Homo sapiens, UniProt Q9NYK1).
T2 construct: host or cells: HEK-Blue cells
T2 sequence (Q9NYK1 27-1049): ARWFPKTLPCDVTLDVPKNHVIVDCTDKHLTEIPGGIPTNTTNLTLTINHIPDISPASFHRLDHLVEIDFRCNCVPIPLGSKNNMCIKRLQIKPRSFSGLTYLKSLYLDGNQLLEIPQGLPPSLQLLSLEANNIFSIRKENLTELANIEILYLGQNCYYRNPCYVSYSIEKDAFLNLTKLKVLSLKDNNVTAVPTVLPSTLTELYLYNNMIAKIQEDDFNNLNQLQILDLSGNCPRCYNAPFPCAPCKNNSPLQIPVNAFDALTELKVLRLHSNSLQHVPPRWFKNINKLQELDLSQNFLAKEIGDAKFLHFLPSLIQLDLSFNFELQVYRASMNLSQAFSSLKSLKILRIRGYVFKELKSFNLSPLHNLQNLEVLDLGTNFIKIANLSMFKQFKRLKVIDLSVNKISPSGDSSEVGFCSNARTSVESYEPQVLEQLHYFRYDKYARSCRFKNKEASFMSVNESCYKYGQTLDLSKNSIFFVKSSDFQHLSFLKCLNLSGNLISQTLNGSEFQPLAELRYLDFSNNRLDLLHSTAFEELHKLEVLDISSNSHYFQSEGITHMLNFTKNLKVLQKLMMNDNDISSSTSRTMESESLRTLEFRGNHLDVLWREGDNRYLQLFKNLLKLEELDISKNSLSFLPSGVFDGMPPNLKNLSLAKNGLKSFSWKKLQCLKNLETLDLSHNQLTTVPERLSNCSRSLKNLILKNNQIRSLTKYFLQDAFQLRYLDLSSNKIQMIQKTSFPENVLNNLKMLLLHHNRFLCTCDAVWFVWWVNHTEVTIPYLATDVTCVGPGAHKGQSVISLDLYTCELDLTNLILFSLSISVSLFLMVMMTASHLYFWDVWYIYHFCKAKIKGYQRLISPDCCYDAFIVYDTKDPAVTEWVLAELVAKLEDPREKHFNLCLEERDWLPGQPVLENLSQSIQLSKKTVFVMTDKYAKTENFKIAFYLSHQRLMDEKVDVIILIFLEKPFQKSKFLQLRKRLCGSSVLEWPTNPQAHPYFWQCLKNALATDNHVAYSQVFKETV
As to the kind of experiment: TLR7 inhibition reporter assay (HEK-Blue SEAP). To be noted: cells overexpressing human TLR7, SEAP reporter, stimulated with gardiquimod 7.5 μM, 22 hour incubation. A digest of the protocol:
as §1

Assay [3] concerns the target T3, human TLR8 (Homo sapiens, UniProt Q9NR97).
T3 construct: host or cells: HEK-Blue cells
T3 sequence (Q9NR97 27-1041): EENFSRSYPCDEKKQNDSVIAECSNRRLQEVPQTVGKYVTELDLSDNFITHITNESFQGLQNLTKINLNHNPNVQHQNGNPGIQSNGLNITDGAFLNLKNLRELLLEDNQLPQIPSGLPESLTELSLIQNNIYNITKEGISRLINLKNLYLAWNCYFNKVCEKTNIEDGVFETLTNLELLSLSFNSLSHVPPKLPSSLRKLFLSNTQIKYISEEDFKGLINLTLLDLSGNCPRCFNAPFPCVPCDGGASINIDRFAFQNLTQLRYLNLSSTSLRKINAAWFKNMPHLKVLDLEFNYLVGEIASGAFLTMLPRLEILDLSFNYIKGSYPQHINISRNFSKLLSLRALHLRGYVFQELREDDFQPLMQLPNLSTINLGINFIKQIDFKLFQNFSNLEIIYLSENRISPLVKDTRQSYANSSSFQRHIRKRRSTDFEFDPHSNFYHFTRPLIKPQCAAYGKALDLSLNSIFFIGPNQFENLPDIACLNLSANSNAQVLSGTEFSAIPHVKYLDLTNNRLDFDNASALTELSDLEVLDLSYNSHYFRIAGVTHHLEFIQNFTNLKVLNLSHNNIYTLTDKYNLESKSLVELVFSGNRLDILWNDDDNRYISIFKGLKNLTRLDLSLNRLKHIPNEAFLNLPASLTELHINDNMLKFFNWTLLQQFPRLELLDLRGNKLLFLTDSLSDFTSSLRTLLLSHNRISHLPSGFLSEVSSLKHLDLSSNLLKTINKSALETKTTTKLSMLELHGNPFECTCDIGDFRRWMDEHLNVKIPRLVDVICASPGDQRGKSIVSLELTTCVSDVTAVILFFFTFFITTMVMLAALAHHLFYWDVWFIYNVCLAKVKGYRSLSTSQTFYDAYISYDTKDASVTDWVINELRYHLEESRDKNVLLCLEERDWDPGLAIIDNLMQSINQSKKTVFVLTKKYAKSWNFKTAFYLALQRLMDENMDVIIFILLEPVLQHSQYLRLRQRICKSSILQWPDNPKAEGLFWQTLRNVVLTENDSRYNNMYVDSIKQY
Nature of the assay: TLR8 inhibition reporter assay (HEK-Blue SEAP). Particulars: cells overexpressing human TLR8, SEAP reporter, stimulated with R848 15.9 μM, 22 hour incubation. A digest of the protocol: as §1
A general note: Reporter assays use an easily measured gene product as a stand-in for the process of interest.

Structures are written as SMILES.

By IC50 is commonly meant the midpoint of a concentration-inhibition curve. Read a high IC50 as a need for much substance. `CCc1c(-c2ccc(OC)c(OC)c2)[nH]c2cnc(-c3nnc(C[C@@H]4CCCCN4)o3)nc12` [Example 46, (S)-2-(6-(3,4-dimethoxyphenyl)-7-ethyl-5H-pyrrolo[3,2-d]pyrimidin-2-yl)-5-(piperidin-2-ylmethyl)-1,3,4-oxadiazole]: the IC50 was 1 to 50 µM in assay [1], 1000 to 50000 nM in assay [2] and 100 to 1000 nM in assay [3].
As for `CCc1c(-c2ccc(OC)c(OC)c2)[nH]c2cnc(-c3nnc(C[C@H]4CCCN4)o3)nc12` [Example 47, (R)-2-(6-(3,4-dimethoxyphenyl)-7-ethyl-5H-pyrrolo[3,2-d]pyrimidin-2-yl)-5-(pyrrolidin-2-ylmethyl)-1,3,4-oxadiazole], the IC50 in assay [1] lay within 1 to 50 µM; in assay [2], 1000 to 50000 nM; in assay [3] it was 100 to 1000 nM.
Regarding `CCc1c(-c2ccc(OC)c(OC)c2)[nH]c2cnc(-c3nnc(CCN(C)C)o3)nc12` [Example 48, 2-(5-(6-(3,4-dimethoxyphenyl)-7-ethyl-5H-pyrrolo[3,2-d]pyrimidin-2-yl)-1,3,4-oxadiazol-2-yl)-N,N-dimethylethan-1-amine], the IC50 lay within 1 to 50 µM in assay [1], 1000 to 50000 nM in assay [2] and 100 to 1000 nM in assay [3].
In the same order, the values of `CCc1c(-c2ccc(OC)c(OC)c2)[nH]c2cnc(C3CCN(CC(=O)N(C)C)CC3)nc12` [Example 49] are 1 to 50 µM, 100 to 1000 nM and less than 100 nM.
Take `CCc1c(-c2ccc(OC)c(OC)c2)[nH]c2cnc(C3CCN(CC(=O)NC)CC3)nc12` [Example 50]: the concentration for half-maximal inhibition (IC50) in assay [1] was in the range of 1 to 50 µM; in assay [2], 100 to 1000 nM; in assay [3], 100 to 1000 nM.
Turning to `CCc1c(-c2ccc(OC)c(OC)c2)[nH]c2cnc(C3CCN(Cc4c[nH]cn4)CC3)nc12` [Example 51, 2-(1-((1H-imidazol-4-yl)methyl)piperidin-4-yl)-6-(3,4-dimethoxyphenyl)-7-ethyl-5H-pyrrolo[3,2-d]pyrimidine], the IC50 was in the range of 1 to 50 µM in assay [1], 100 to 1000 nM in assay [2] and 100 to 1000 nM in assay [3].
Take `CCc1c(-c2ccc(OC)c(OC)c2)[nH]c2cnc(C3CCN(Cc4nc(C)c[nH]4)CC3)nc12` [Example 52, 6-(3,4-dimethoxyphenyl)-7-ethyl-2-(1-((4-methy 1H-imidazol-2-yl)methyl)piperidin-4-yl)-5H-pyrrolo[3,2-d]pyrimidine]: the IC50 in assay [1] was 1 to 50 µM; in assay [2] it was 100 to 1000 nM; in assay [3], less than 100 nM.
For `CCc1c(-c2ccc(OC)c(OC)c2)[nH]c2cnc(-c3nnc(N)o3)nc12` [Example 53, 5-(6-(3,4-dimethoxyphenyl)-7-ethyl-5H-pyrrolo[3,2-d]pyrimidin-2-yl)-1,3,4-oxadiazol-2-amine], the results for the IC50 in assay [1], in assay [2] and in assay [3] were greater than 50 µM, greater than 50000 nM and 1000 to 50000 nM, respectively.
For `CCc1c(-c2ccc(OC)c(OC)c2)[nH]c2cnc(C(=O)N3CC4CNCC4C3)nc12` (stereo not drawn) [Example 55, (6-(3,4-dimethoxyphenyl)-7-ethyl-5H-pyrrolo[3,2-d]pyrimidin-2-yl)(hexahydropyrrolo[3,4-c]pyrrol-2(1H)-yl)methanone], the IC50 is 1 to 50 µM in assay [1], 1000 to 50000 nM in assay [2] and 1000 to 50000 nM in assay [3].
In the case of `CCc1c(-c2ccc(OC)c(OC)c2)[nH]c2cnc(C(=O)NC3CCN(C(C)C)CC3)nc12` [Example 56, 6-(3,4-diunethoxyphenyl)-7-ethyl-N-(1-isopropylpiperidin-4-yl)-5H-pyrrolo[3,2-d]pyrimidine-2-carboxamide], the IC50 was greater than 50 µM in assay [1], 1000 to 50000 nM in assay [2] and 1000 to 50000 nM in assay [3].
Turning to `COc1cc(-c2[nH]c3cnc(C4CCN(CC#N)CC4)nc3c2C(C)C)cn2ncnc12` [Example 59], the IC50 in assay [1] is 0.1 to 1 µM; in assay [2] it was less than 100 nM; in assay [3], less than 100 nM.
